Results on 19 molecules are retold here after patent publication US12600709B2, “Nonpeptide somatostatin type 5 receptor agonists and uses thereof” (Crinetics Pharmaceuticals, Inc., priority 2019, dated 2026).

Read-outs that look alike come from different tables or passages of the source.

The target in test [1] is T1, human somatostatin receptor subtype 2 (Homo sapiens, UniProt P30874).
T1 construct: expressed in transfected cells
Put plainly: cAMP assay for SST2R (inhibition of cAMP in CHO-K1 cells). The format is cell-based. Conditions: Table B; inhibition of cAMP via human SST2 receptor; read-out: SST2 potency. Put shortly: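 CHO-K1 cells stably expressing human SSTR2, plated 4 days prior, treated 20 min at 37° C with 1.6 μM NKH477 plus compound dilutions in HBSS/HEPES pH 7.4/0.1% BSA/0.2 mM IBMX. Lysate cAMP measured by HTRF against standard curve; EC50 from concentration-response.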
(In general: cAMP levels reflect the balance of adenylyl cyclase and phosphodiesterase activity.)

Test [2] has as its target T2, human somatostatin receptor subtype 5 (Homo sapiens, UniProt P35346).
T2 construct: expressed in transfected cells
Kind of test: cAMP assay for SST5R (inhibition of cAMP in CHO-K1 cells). In kind it is cell-based. Conditions: for EC50: inhibition of cAMP via human SST5 receptor, read-out: SST5 potency; for Fold selectivity for SST5 vs SST2: class symbols, SST5 receptor over SST2 receptor. Put shortly: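 CHO-K1 cells stably expressing human SSTR5 were treated 20 min at 37 °C with compounds plus 1.6 μM NKH477 in HBSS, 0.5 mM HEPES pH 7.4, 0.1% BSA, 0.2 mM IBMX. Lysate cAMP measured by HTRF against a standard curve; EC50 from cAMP-versus-concentration plots.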

T1 sequence (P30874 whole entry): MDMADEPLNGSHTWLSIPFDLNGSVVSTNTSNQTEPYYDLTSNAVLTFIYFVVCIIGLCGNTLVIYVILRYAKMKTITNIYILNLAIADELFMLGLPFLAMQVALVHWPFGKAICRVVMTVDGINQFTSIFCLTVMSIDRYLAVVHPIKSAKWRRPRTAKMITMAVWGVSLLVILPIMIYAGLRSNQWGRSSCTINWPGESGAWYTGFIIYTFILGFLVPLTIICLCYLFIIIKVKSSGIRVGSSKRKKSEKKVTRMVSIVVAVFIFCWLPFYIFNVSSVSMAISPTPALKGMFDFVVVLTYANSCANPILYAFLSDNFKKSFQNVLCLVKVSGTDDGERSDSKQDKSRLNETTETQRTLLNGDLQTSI
T2 sequence (P35346 whole entry): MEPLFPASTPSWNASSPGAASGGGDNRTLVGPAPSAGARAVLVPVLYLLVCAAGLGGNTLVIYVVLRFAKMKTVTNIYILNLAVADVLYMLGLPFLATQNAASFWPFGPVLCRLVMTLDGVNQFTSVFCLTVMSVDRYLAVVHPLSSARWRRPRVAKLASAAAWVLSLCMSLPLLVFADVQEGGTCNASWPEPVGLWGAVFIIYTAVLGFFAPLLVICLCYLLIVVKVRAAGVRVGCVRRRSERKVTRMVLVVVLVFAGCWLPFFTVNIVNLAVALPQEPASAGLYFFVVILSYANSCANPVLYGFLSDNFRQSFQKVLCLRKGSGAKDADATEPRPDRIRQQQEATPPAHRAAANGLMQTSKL

`COc1ncc(C(=O)NC23CC(C2)C3)c(N2CC[C@](C)(N)C2)c1-c1cc(F)cc(F)c1` [1-130, 4-[(3S)-3-amino-3-methylpyrrolidin-1-yl]-N-{bicyclo[1.1.1]pentan-1-yl}-5-(3,5-difluorophenyl)-6-methoxypyridine-3-carboxamide]: the EC50 in test [1] was 100 to 1000 nM; in test [2] (Table A) it was less than 10 nM; in test [2] (Table B), less than 10 nM. In test [2] (Table B), the “Fold selectivity for SST5 vs SST2” value is “+++ (+++=>500)”.

For the molecule `CC(NC(=O)c1cnc(C#N)c(-c2cc(F)cc(F)c2)c1N1CC[C@](C)(N)C1)c1ccon1` (stereo partly drawn) [1-132, 4-[(3S)-3-amino-3-methylpyrrolidin-1-yl]-6-cyano-5-(3,5-difluorophenyl)-N-[1-(1,2-oxazol-3-yl)ethyl]pyridine-3-carboxamide], the EC50 was greater than 1000 nM in test [1], less than 10 nM in test [2] (Table A) and less than 10 nM in test [2] (Table B). In addition, the “Fold selectivity for SST5 vs SST2” value in test [2] (Table B) was “+++ (+++=>500)”.

As for `C[C@H](NC(=O)c1cnc(C#N)c(-c2cc(F)cc(F)c2)c1N1C[C@@H](N)[C@H](F)C1)C1CC1` [1-135, 4-[(3R,4R)-3-amino-4-fluoropyrrolidin-1-yl]-6-cyano-N-[(1S)-1-cyclopropylethyl]-5-(3,5-difluorophenyl)pyridine-3-carboxamide], the figures for the EC50 in test [1], in test [2] (Table A) and in test [2] (Table B) were 100 to 1000 nM, less than 10 nM and less than 10 nM, respectively. The “Fold selectivity for SST5 vs SST2” value in test [2] (Table B) is listed as “+++ (+++=>500)”.

`COc1ncc(C(=O)NC2CC(F)(F)C2)c(N2CC[C@](C)(N)C2)c1-c1cc(F)cc(F)c1` [1-137, 4-[(3S)-3-amino-3-methylpyrrolidin-1-yl]-N-(3,3-difluorocyclobutyl)-5-(3,5-difluorophenyl)-6-methoxypyridine-3-carboxamide]: the EC50 was 100 to 1000 nM in test [1], less than 10 nM in test [2] (Table A) and less than 10 nM in test [2] (Table B). In addition, in test [2] (Table B), the “Fold selectivity for SST5 vs SST2” value is reported as “+++ (+++=>500)”.

Turning to `COc1ncc(C(=O)N[C@@H](C)C2CC2)c(N2CC[C@](C)(N)C2)c1-c1cc(F)cc(C#N)c1` [1-153, 4-[(3S)-3-amino-3-methylpyrrolidin-1-yl]-5-(3-cyano-5-fluorophenyl)-N-[(1S)-1-cyclopropylethyl]-6-methoxypyridine-3-carboxamide], the EC50 is 100 to 1000 nM in test [1], less than 10 nM in test [2] (Table A) and less than 10 nM in test [2] (Table B). Moreover, the “Fold selectivity for SST5 vs SST2” value in test [2] (Table B) was “+++ (+++=>500)”.

`COc1ncc(C(=O)N[C@@H](C)C2CC2)c(N2CC[C@](C)(N)C2)c1-c1cccc(OC(F)(F)F)c1` [1-154, 4-[(3S)-3-amino-3-methylpyrrolidin-1-yl]-N-[(1S)-1-cyclopropylethyl]-6-methoxy-5-[3-(trifluoromethoxy)phenyl]pyridine-3-carboxamide]: the EC50 in test [1] was greater than 1000 nM; in test [2] (Table A), less than 10 nM; in test [2] (Table B) it was less than 10 nM. In addition, the “Fold selectivity for SST5 vs SST2” value in test [2] (Table B) is given as “+++ (+++=>500)”.

Consider `COc1cc(-c2c(C)ncc(C(=O)N[C@@H](C)C3CC3)c2N2CC[C@](C)(N)C2)ccn1` [1-157, 4-[(3S)-3-amino-3-methylpyrrolidin-1-yl]-N-[(1S)-1-cyclopropylethyl]-2′-methoxy-2-methyl-[3,4′-bipyridine]-5-carboxamide], for which the EC50 in test [1] is greater than 1000 nM; in test [2] (Table A), less than 10 nM; in test [2] (Table B), less than 10 nM. Moreover, the “Fold selectivity for SST5 vs SST2” value in test [2] (Table B) is on record as “+++ (+++=>500)”.

As to `Cc1ncc(C(=O)N[C@@H](C)C2CC2)c(N2CC[C@](C)(N)C2)c1-c1cncc(Cl)c1` [1-158, 4-[(3S)-3-amino-3-methylpyrrolidin-1-yl]-5′-chloro-N-[(1S)-1-cyclopropylethyl]-2-methyl-[3,3′-bipyridine]-5-carboxamide], the EC50 in test [1] was greater than 1000 nM; in test [2] (Table A) it was less than 10 nM; in test [2] (Table B), less than 10 nM. The “Fold selectivity for SST5 vs SST2” value in test [2] (Table B) is recorded as “+++ (+++=>500)”.

On to `Cc1ncc(C(=O)N[C@@H](C)C2CC2)c(N2CC[C@](C)(N)C2)c1-c1ccnc(C(F)(F)F)c1` [1-159, 4-[(3S)-3-amino-3-methylpyrrolidin-1-yl]-N-[(1S)-1-cyclopropylethyl]-2-methyl-2′-(trifluoromethyl)-[3,4′-bipyridine]-5-carboxamide], for which the EC50 in test [1] is greater than 1000 nM; in test [2] (Table A) it was less than 10 nM; in test [2] (Table B) it was less than 10 nM. In test [2] (Table B), the “Fold selectivity for SST5 vs SST2” value was “+++ (+++=>500)”.

For the molecule `Cc1ncc(C(=O)N[C@@H](C)C2CC2)c(N2CC[C@](C)(N)C2)c1-c1cncc(F)c1` [1-160, 4-[(3S)-3-amino-3-methylpyrrolidin-1-yl]-N-[(1S)-1-cyclopropylethyl]-5′-fluoro-2-methyl-[3,3′-bipyridine]-5-carboxamide], the EC50 in test [1] is 100 to 1000 nM; in test [2] (Table A) it was less than 10 nM; in test [2] (Table B), less than 10 nM. Further, the “Fold selectivity for SST5 vs SST2” value in test [2] (Table B) is “+++ (+++=>500)”.

For the molecule `C[C@H](NC(=O)c1cncc(-c2ccc3cnn(C)c3c2)c1N1CC[C@](C)(N)C1)C1CC1` [1-161, 4-[(3S)-3-amino-3-methylpyrrolidin-1-yl]-N-[(1S)-1-cyclopropylethyl]-5-(1-methyl-1H-indazol-6-yl)pyridine-3-carboxamide], the EC50 in test [1] was greater than 1000 nM; in test [2] (Table A) it was less than 10 nM; in test [2] (Table B), less than 10 nM. In addition, the “Fold selectivity for SST5 vs SST2” value in test [2] (Table B) was “++ (++=100 to 499)”.

Take `C[C@H](NC(=O)c1cncc(-c2cccc3c2cnn3C)c1N1CC[C@](C)(N)C1)C1CC1` [1-162, 4-[(3S)-3-amino-3-methylpyrrolidin-1-yl]-N-[(1S)-1-cyclopropylethyl]-5-(1-methyl-1H-indazol-4-yl)pyridine-3-carboxamide]: the EC50 in test [1] was greater than 1000 nM; in test [2] (Table A) it was less than 10 nM; in test [2] (Table B), less than 10 nM. In addition, the “Fold selectivity for SST5 vs SST2” value in test [2] (Table B) is listed as “+++ (+++=>500)”.

Take `C[C@H](NC(=O)c1cncc(-c2cccc3c2OC(F)(F)O3)c1N1CC[C@](C)(N)C1)C1CC1` [1-163, 4-[(3S)-3-amino-3-methylpyrrolidin-1-yl]-N-[(1S)-1-cyclopropylethyl]-5-(2,2-difluoro-2H-1,3-benzodioxol-4-yl)pyridine-3-carboxamide]: the EC50 in test [1] is 100 to 1000 nM; in test [2] (Table A) it was less than 10 nM; in test [2] (Table B) it was less than 10 nM. For the same molecule, the “Fold selectivity for SST5 vs SST2” value in test [2] (Table B) is “++ (++=100 to 499)”.

Turning to `COc1ncc(C(=O)N[C@@H](C)C2CC2)c(N2CC[C@](C)(N)C2)c1-c1cc(F)cc(C(F)(F)F)c1` [1-164, 4-[(3S)-3-amino-3-methylpyrrolidin-1-yl]-N-[(1S)-1-cyclopropylethyl]-5-[3-fluoro-5-(trifluoromethyl)phenyl]-6-methoxypyridine-3-carboxamide], the EC50 in test [1] is 100 to 1000 nM; in test [2] (Table A), less than 10 nM; in test [2] (Table B), less than 10 nM. Moreover, in test [2] (Table B), the “Fold selectivity for SST5 vs SST2” value is “+++ (+++=>500)”.

Take `COc1ncc(C(=O)N[C@@H](C)C2CC2)c(N2CC[C@](C)(N)C2)c1-c1cccc(OC(F)F)c1` [1-165, 4-[(3S)-3-amino-3-methylpyrrolidin-1-yl]-N-[(1S)-1-cyclopropylethyl]-5-[3-(difluoromethoxy)phenyl]-6-methoxypyridine-3-carboxamide]: the EC50 in test [1] was 100 to 1000 nM; in test [2] (Table A), less than 10 nM; in test [2] (Table B), less than 10 nM. In addition, the “Fold selectivity for SST5 vs SST2” value in test [2] (Table B) is “+++ (+++=>500)”.

For the molecule `COc1ncc(C(=O)N[C@@H](C)C2CC2)c(N2CC[C@](C)(N)C2)c1-c1ccnc(C(F)(F)F)c1` [1-166, 4-[(3S)-3-amino-3-methylpyrrolidin-1-yl]-N-[(1S)-1-cyclopropylethyl]-2-methoxy-2′-(trifluoromethyl)-[3,4′-bipyridine]-5-carboxamide], the values for the EC50 in test [1], in test [2] (Table A) and in test [2] (Table B) were greater than 1000 nM, less than 10 nM and less than 10 nM, respectively. In addition, the “Fold selectivity for SST5 vs SST2” value in test [2] (Table B) is recorded as “+++ (+++=>500)”.

Consider `COc1ncc(C(=O)N[C@@H](C)C2CC2)c(N2CC[C@](C)(N)C2)c1-c1cncc(Cl)c1` [1-167, 4-[(3S)-3-amino-3-methylpyrrolidin-1-yl]-5′-chloro-N-[(1S)-1-cyclopropylethyl]-2-methoxy-[3,3′-bipyridine]-5-carboxamide], for which the EC50 in test [1] was greater than 1000 nM; in test [2] (Table A), less than 10 nM; in test [2] (Table B) it was less than 10 nM. In addition, the “Fold selectivity for SST5 vs SST2” value in test [2] (Table B) is reported as “+++ (+++=>500)”.

As to `C[C@H](NC(=O)c1cnc(C#N)c(-c2cccc(OC(F)F)c2)c1N1CC[C@](C)(N)C1)C(F)(F)F` [1-168, 4-[(3S)-3-amino-3-methylpyrrolidin-1-yl]-6-cyano-5-[3-(difluoromethoxy)phenyl]-N-[(2S)-1,1,1-trifluoropropan-2-yl]pyridine-3-carboxamide], the EC50 in test [1] is 100 to 1000 nM; in test [2] (Table A), less than 10 nM; in test [2] (Table B), less than 10 nM. For the same molecule, the “Fold selectivity for SST5 vs SST2” value in test [2] (Table B) was “+++ (+++=>500)”.

`C[C@H](NC(=O)c1cnc(C#N)c(-c2ccnc(C(F)(F)F)c2)c1N1CC[C@](C)(N)C1)C(F)(F)F` [1-169, 4-[(3S)-3-amino-3-methylpyrrolidin-1-yl]-2-cyano-2′-(trifluoromethyl)-N-[(2S)-1,1,1-trifluoropropan-2-yl]-[3,4′-bipyridine]-5-carboxamide]: the values for the EC50 in test [1], in test [2] (Table A) and in test [2] (Table B) were 100 to 1000 nM, less than 10 nM and less than 10 nM, respectively. Further, the “Fold selectivity for SST5 vs SST2” value in test [2] (Table B) is recorded as “+++ (+++=>500)”.
